In patent US20250171430A1, “PYRAZOLYL COMPOUNDS AS KV7 CHANNEL ACTIVATORS” (Biohaven Therapeutics Ltd., priority 2022, published 2025):

Target: T1, Kv7.2/7.3 (Homo sapiens, UniProt O43525+O43526)
T1 construct: Kv7.2 tetracycline-induced, Kv7.3 constitutive
Test: Kv7.2/7.3 Activation Assay (Thallium Flux Assay)
Type: cell-based
Details: hKV7.2/7.3 cell line; test compound at single concentration of 10 μM; fluorescence at 90 sec normalized to positive control (retigabine, 30 μM)
Source text: The Thallium Flux Assay is used as a surrogate indicator of potassium channel activity.
The experimental protocol was adapted from the FluxOR™ II Green Potassium Ion Channel Assay User Guide (Pub. No. MAN0016084, Invitrogen). Conditions were optimized for the Kv7.2/7.3 cell line.
Cell Line: The hKV7.2/7.3 cell line was obtained from Chantest (cat. #CT6147).
Cell Culture: Kv7.2/7.3 cells were maintained in a media containing DMEM/F12; 50/50 (Fisher 11-330), 10% Fetal Bovine Serum (FBS) (Fisher 26-140), 100 units/mL Penicillin-Streptomycin (Fisher 15-140), 0.005 mg/ml Blasticidin (InvivoGen ant-bl-1), 0.5 mg/mL Geneticin (InvivoGen ant-gn-5), and 0.1 mg/mL Zeocin (Fisher R25001). One day prior to experimentation, cells were plated in 96 well clear bottom plates (Corning cat. #353219) in a media without Blasticidin, Geneticin, or Zeocin. In this cell line Kv7.3 channel expression is controlled by a constitutive promoter. Kv7.2 channel expression was induced by adding tetracycline (Sigma T7660) at a final concentration of 10 ng/mL overnight in a cell culture incubator at 37° C. and 5% CO2. On the day of assay, the cell culture medium in the 96-well plates was replaced by assay buffer containing the thallium-sensitive fluorescent sensor, FluxOR II Green prepared according to manufacturer's instructions. The 96-well plates were then incubated for 1 h at 37° C. Following the incubation, the FluxOR II Green-containing solution was replaced with extracellular solution.
Test Compound Plates: The test compound is diluted in a mixture of 0.1% DMSO/extracellular solution at a single concentration of 10 μM. Dilutions were made on a Biomek NXP (BECKMAN COULTER). Extracellular solution contained (in mM: 145 NaCl, 4 KCl, 2 CaCl2), 1 MgCl2, 10 HEPES, and 10 Glucose, pH 7.4).
Measurement and data analysis: Thallium-flux-mediated changes in intracellular fluorescence were made using a plate reader (Enspire, Perkin Elmer) set with an excitation wavelength of 475 nm and an emission wavelength of 530 nm. After a 15 sec baseline measurement, the stimulus buffer containing thallium and potassium was added to the 96-well plate containing FluxOR II Green-loaded cells and test compounds. Fluorescence values at 90 sec were normalized to the positive control (retigabine, 30 μM) and test compound activities were assigned categories according to the formula: “No Activity <0.15, “+” Moderate Activity 0.15-0.7, and “++” High Activity >0.7.

SMILES | Kv7.2/7.3 Activity
Cn1nc(NC(=O)CC(C)(C)C2CC2)c(C2CC(F)(F)C2)c1-c1ccc(OC(F)(F)F)cc1 [Compound 43, 3-cyclopropyl-N-(4-(3,3-difluorocyclobutyl)-1-methyl-5-(4-(trifluoromethoxy)phenyl)-1H-pyrazol-3-yl)-3-methylbutanamide] | + (“+” Moderate Activity 0.15-0.7)
Cn1nc(NC(=O)C[C@@H]2CC(F)(F)C2(F)F)c(C2CCC2)c1C(=O)c1ccccc1 [Compound 44, (R)-N-(5-benzoyl-4-cyclobutyl-1-methyl-1H-pyrazol-3-yl)-2-(2,2,3,3-tetrafluorocyclobutyl)acetamide] | ++ (“++” High Activity ≥ 0.7)
N#CCn1nc(NC(=O)C[C@@H]2CC(F)(F)C2(F)F)c(C2CCC2)c1-c1ccc(F)cc1 [Compound 45, (R)-N-(1-(cyanomethyl)-4-cyclobutyl-5-(4-fluorophenyl)-1H-pyrazol-3-yl)-2-(2,2,3,3-tetrafluorocyclobutyl)acetamide] | ++ (“++” High Activity ≥ 0.7)
N#CCn1nc(NC(=O)C[C@H]2CC(F)(F)C2(F)F)c(C2CCC2)c1-c1ccc(F)cc1 [Compound 46, (S)-N-(1-(cyanomethyl)-4-cyclobutyl-5-(4-fluorophenyl)-1H-pyrazol-3-yl)-2-(2,2,3,3-tetrafluorocyclobutyl)acetamide] | + (“+” Moderate Activity 0.15-0.7)
Cn1nc(NC(=O)C[C@@H]2CC(F)(F)C2(F)F)c(C2CCC2)c1-c1cccc(C(C)(C)O)c1 [Compound 47, (R)-N-(4-cyclobutyl-5-(3-(2-hydroxypropan-2-yl)phenyl)-1-methyl-1H-pyrazol-3-yl)-2-(2,2,3,3-tetrafluorocyclobutyl)acetamide] | + (“+” Moderate Activity 0.15-0.7)
Cn1nc(NC(=O)C[C@H]2CC(F)(F)C2(F)F)c(C2CCC2)c1-c1cccc(C(C)(C)O)c1 [Compound 48, (S)-N-(4-cyclobutyl-5-(3-(2-hydroxypropan-2-yl)phenyl)-1-methyl-1H-pyrazol-3-yl)-2-(2,2,3,3-tetrafluorocyclobutyl)acetamide] | + (“+” Moderate Activity 0.15-0.7)
Cn1nc(NC(=O)CC(C)(C)C(F)(F)F)c(C2CCC2)c1-c1cnc(C(F)(F)F)s1 [Compound 49, N-(4-cyclobutyl-1-methyl-5-(2-(trifluoromethyl)thiazol-5-yl)-1H-pyrazol-3-yl)-4,4,4-trifluoro-3,3-dimethylbutanamide] | + (“+” Moderate Activity 0.15-0.7)
Cn1nc(NC(=O)CC2(C(F)(F)F)CC2)c(C2CCC2)c1-c1cnc(C(F)(F)F)s1 [Compound 50, N-(4-cyclobutyl-1-methyl-5-(2-(trifluoromethyl)thiazol-5-yl)-1H-pyrazol-3-yl)-2-(1-(trifluoromethyl)cyclopropyl)acetamide] | − (“−” No Activity < 0.15)
Cn1nc(NC(=O)C2C(C)(C)C2(C)C)c(C2CCC2)c1-c1ccc(OC(F)(F)F)cc1 [Compound 51, N-(4-cyclobutyl-1-methyl-5-(4-(trifluoromethoxy)phenyl)-1H-pyrazol-3-yl)-2,2,3,3-tetramethylcyclopropane-1-carboxamide] | + (“+” Moderate Activity 0.15-0.7)
Cn1nc(NC(=O)[C@H]2C(C)(C)C2(F)F)c(C2CCC2)c1-c1ccc(OC(F)(F)F)cc1 [Compound 52, (R)-N-(4-cyclobutyl-1-methyl-5-(4-(trifluoromethoxy)phenyl)-1H-pyrazol-3-yl)-2,2-difluoro-3,3-dimethylcyclopropane-1-carboxamide] | + (“+” Moderate Activity 0.15-0.7)
Cn1nc(NC(=O)C[C@@H]2CC(F)(F)C2(F)F)c(C2CCC2)c1-c1ccc(S(C)(=O)=O)cc1 [Compound 53, (R)-N-(4-cyclobutyl-1-methyl-5-(4-(methylsulfonyl)phenyl)-1H-pyrazol-3-yl)-2-(2,2,3,3-tetrafluorocyclobutyl)acetamide] | − (“−” No Activity < 0.15)
Cn1nc(NC(=O)C[C@H]2CC(F)(F)C2(F)F)c(C2CCC2)c1-c1ccc(S(C)(=O)=O)cc1 [Compound 54, (S)-N-(4-cyclobutyl-1-methyl-5-(4-(methylsulfonyl)phenyl)-1H-pyrazol-3-yl)-2-(2,2,3,3-tetrafluorocyclobutyl)acetamide] | − (“−” No Activity < 0.15)
Cn1nc(NC(=O)CC(C)(C)O)c(C2CCC2)c1-c1ccc(OC(F)(F)F)cc1 [Compound 55, N-(4-cyclobutyl-1-methyl-5-(4-(trifluoromethoxy)phenyl)-1H-pyrazol-3-yl)-3-hydroxy-3-methylbutanamide] | + (“+” Moderate Activity 0.15-0.7)
COc1ccc(-c2c(C3CCC3)c(NC(=O)C[C@@H]3CC(F)(F)C3(F)F)nn2C)cc1 [Compound 56, (R)-N-(4-cyclobutyl-5-(4-methoxyphenyl)-1-methyl-1H-pyrazol-3-yl)-2-(2,2,3,3-tetrafluorocyclobutyl)acetamide] | ++ (“++” High Activity ≥ 0.7)
COc1ccc(-c2c(C3CCC3)c(NC(=O)C[C@H]3CC(F)(F)C3(F)F)nn2C)cc1 [Compound 57, (S)-N-(4-cyclobutyl-5-(4-methoxyphenyl)-1-methyl-1H-pyrazol-3-yl)-2-(2,2,3,3-tetrafluorocyclobutyl)acetamide] | ++ (“++” High Activity ≥ 0.7)
O=C(C[C@@H]1CC(F)(F)C1(F)F)Nc1nn(CCO)c(-c2ccc(F)cc2)c1C1CCC1 [Compound 58, (R)-N-(4-cyclobutyl-5-(4-fluorophenyl)-1-(2-hydroxyethyl)-1H-pyrazol-3-yl)-2-(2,2,3,3-tetrafluorocyclobutyl)acetamide] | ++ (“++” High Activity ≥ 0.7)
Cn1nc(NC(=O)C[C@@H]2CC(F)(F)C2(F)F)c(C2CCC2)c1-c1cnc(C(F)(F)F)s1 [Compound 59, (R)-N-(4-cyclobutyl-1-methyl-5-(2-(trifluoromethyl)thiazol-5-yl)-1H-pyrazol-3-yl)-2-(2,2,3,3-tetrafluorocyclobutyl)acetamide] | + (“+” Moderate Activity 0.15-0.7)
Cn1nc(NC(=O)C[C@H]2CC(F)(F)C2(F)F)c(C2CCC2)c1-c1cnc(C(F)(F)F)s1 [Compound 60, (S)-N-(4-cyclobutyl-1-methyl-5-(2-(trifluoromethyl)thiazol-5-yl)-1H-pyrazol-3-yl)-2-(2,2,3,3-tetrafluorocyclobutyl)acetamide] | + (“+” Moderate Activity 0.15-0.7)
Cn1nc(NC(=O)C[C@@H]2CC(F)(F)C2(F)F)c(C2CCC2)c1CCc1ccccc1 [Compound 61, (R)-N-(4-cyclobutyl-1-methyl-5-phenethyl-1H-pyrazol-3-yl)-2-(2,2,3,3-tetrafluorocyclobutyl)acetamide] | ++ (“++” High Activity ≥ 0.7)
Cn1nc(NC(=O)C[C@H]2CC(F)(F)C2(F)F)c(C2CCC2)c1CCc1ccccc1 [Compound 62, (S)-N-(4-cyclobutyl-1-methyl-5-phenethyl-1H-pyrazol-3-yl)-2-(2,2,3,3-tetrafluorocyclobutyl)acetamide] | ++ (“++” High Activity ≥ 0.7)
Cn1nc(NC(=O)C[C@@H]2CC(F)(F)C2(F)F)c(C2CCC2)c1Cc1ccc(OC(F)(F)F)cc1 [Compound 63, (R)-N-(4-cyclobutyl-1-methyl-5-(4-(trifluoromethoxy)benzyl)-1H-pyrazol-3-yl)-2-(2,2,3,3-tetrafluorocyclobutyl)acetamide] | ++ (“++” High Activity ≥ 0.7)
Cn1nc(NC(=O)C[C@H]2CC(F)(F)C2(F)F)c(C2CCC2)c1Cc1ccc(OC(F)(F)F)cc1 [Compound 64, (S)-N-(4-cyclobutyl-1-methyl-5-(4-(trifluoromethoxy)benzyl)-1H-pyrazol-3-yl)-2-(2,2,3,3-tetrafluorocyclobutyl)acetamide] | + (“+” Moderate Activity 0.15-0.7)
O=C(C[C@@H]1CC(F)(F)C1(F)F)Nc1nn(CCO)c(Cc2ccccc2)c1C1CCC1 [Compound 65, (R)-N-(5-benzyl-4-cyclobutyl-1-(2-hydroxyethyl)-1H-pyrazol-3-yl)-2-(2,2,3,3-tetrafluorocyclobutyl)acetamide] | ++ (“++” High Activity ≥ 0.7)
Cn1nc(NC(=O)C[C@@H]2CC(F)(F)C2(F)F)c(C2CCC2)c1C1CCCCC1 [Compound 66, (R)-N-(4-cyclobutyl-5-cyclohexyl-1-methyl-1H-pyrazol-3-yl)-2-(2,2,3,3-tetrafluorocyclobutyl)acetamide] | ++ (“++” High Activity ≥ 0.7)
